pEC50: −log10 of the molar value.
System: parasites (ring stage, in human red blood cell culture)
Assay: Parasite LDH growth assay (antiparasite potency, Parasite Assay)
Assay type: cell-based, Plasmodium falciparum
Details: Plasmodium falciparum, Erythrocyte, 72 h, 0.7% rings, 2% haematocrit, 72 hours at 37° C., LDH readout of parasite growth
Method in brief: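 Growth was read by an LDH assay after a freeze–thaw cycle (−80 °C overnight, 4 h thaw at RT). Before that, parasites grew with compound for 72 h at 37 °C under gassed, humidified conditions. The input was a ring-stage culture adjusted to 0.7% parasitemia and 2% haematocrit in serum (5%)/albumax (0.5%)-supplemented RPMI-Hepes.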

SMILES | pEC50
CCC1(CC)CC(=O)N(C2CCCc3ccc(C(=O)N[C@@H]4c5ccccc5OC[C@@]4(C)O)cc32)C(=N)N1 (stereo partly drawn) [Example 161, 8-(4,4-diethyl-2-imino-6-oxotetrahydropyrimidin-1(2H)-yl)-N-((3S,4R)-3-hydroxy-3-methylchroman-4-yl)-5,6,7,8-tetrahydronaphthalene-2-carboxamide] | 9.10
CC1(C)CC(=O)N([C@H]2c3cc(C(=O)N[C@@H]4c5ccccc5OC(C)(C)[C@H]4O)ccc3CC2(C)C)C(=N)N1 [Example 162, (3R)-N-[(3S,4R)-3-hydroxy-2,2-dimethyl-chroman-4-yl]-3-(2-imino-4,4-dimethyl-6-oxo-hexahydropyrimidin-1-yl)-2,2-dimethyl-indane-5-carboxamide] | 8.12
CCC1(CC)CC(=O)N([C@H]2c3cc(C(=O)N[C@@H]4c5ccccc5C[C@@]4(C)O)ccc3OC2(C)C)C(=N)N1 [Example 163, (3S)-3-(4,4-diethyl-2-imino-6-oxo-hexahydropyrimidin-1-yl)-N-[(1R,2R)-2-hydroxy-2-methyl-indan-1-yl]-2,2-dimethyl-3H-benzofuran-5-carboxamide] | 8.08
CCC1(CC)CC(=O)N([C@@H]2C[C@@H](C)Oc3ccc(C(=O)N[C@@H]4c5ccccc5C[C@@]4(C)O)cc32)C(=N)N1 [Example 164, (2R,4R)-4-(4,4-diethyl-2-imino-6-oxo-hexahydropyrimidin-1-yl)-N-[(1R,2R)-2-hydroxy-2-methyl-indan-1-yl]-2-methyl-chromane-6-carboxamide] | 8.62
CCC1(CC)CC(=O)N([C@H]2c3cc(C(=O)N[C@@H]4c5ccccc5C[C@H]4O)ccc3CC[C@@H]2OC)C(=N)N1 [Example 165, (3S,4S)-4-(4,4-diethyl-2-imino-6-oxo-hexahydropyrimidin-1-yl)-N-[(1R,2R)-2-hydroxyindan-1-yl]-3-methoxy-tetralin-6-carboxamide] | 8.47
CC[C@]1(C)CC(=O)N([C@@H]2c3cc(C(=O)N[C@@H]4c5ccccc5OC(C)(C)[C@H]4O)ccc3C[C@@H]2C)C(=N)N1 [Example 166, (2S,3S)-3-[(4R)-4-ethyl-2-imino-4-methyl-6-oxo-hexahydropyrimidin-1-yl]-N-[(3S,4R)-3-hydroxy-2,2-dimethyl-chroman-4-yl]-2-methyl-indane-5-carboxamide] | 6.81
CC[C@]1(C)CC(=O)N([C@@H]2c3cc(C(=O)N[C@@H]4c5ccccc5OC(C)(C)[C@H]4O)ccc3C[C@H]2C)C(=N)N1 [Example 167, (2R,3S)-3-[(4R)-4-ethyl-2-imino-4-methyl-6-oxo-hexahydropyrimidin-1-yl]-N-[(3S,4R)-3-hydroxy-2,2-dimethyl-chroman-4-yl]-2-methyl-indane-5-carboxamide] | 6.60
CC[C@]1(C)CC(=O)N([C@H]2c3cc(C(=O)N[C@@H]4c5ccccc5OC(C)(C)[C@H]4O)ccc3C[C@H]2C)C(=N)N1 [Example 168, (2R,3R)-3-[(4R)-4-ethyl-2-imino-4-methyl-6-oxo-hexahydropyrimidin-1-yl]-N-[(3S,4R)-3-hydroxy-2,2-dimethyl-chroman-4-yl]-2-methyl-indane-5-carboxamide] | 9.40
CC[C@]1(C)CC(=O)N([C@H]2c3cc(C(=O)N[C@@H]4c5ccccc5OC(C)(C)[C@H]4O)ccc3C[C@@H]2C)C(=N)N1 [Example 169, (2S,3R)-3-[(4R)-4-ethyl-2-imino-4-methyl-6-oxo-hexahydropyrimidin-1-yl]-N-[(3S,4R)-3-hydroxy-2,2-dimethyl-chroman-4-yl]-2-methyl-indane-5-carboxamide] | 9.52
CC[C@]1(C)CC(=O)N([C@H]2C[C@H](C)c3ccc(C(=O)N[C@@H]4c5ccccc5OC(C)(C)[C@H]4O)cc32)C(=N)N1 [Example 170, (1S,3S)-3-[(4R)-4-ethyl-2-imino-4-methyl-6-oxo-hexahydropyrimidin-1-yl]-N-[(3S,4R)-3-hydroxy-2,2-dimethyl-chroman-4-yl]-1-methyl-indane-5-carboxamide] | 6.74
CC[C@]1(C)CC(=O)N([C@@H]2C[C@@H](C)c3ccc(C(=O)N[C@@H]4c5ccccc5OC(C)(C)[C@H]4O)cc32)C(=N)N1 [Example 171, (1R,3R)-3-[(4R)-4-ethyl-2-imino-4-methyl-6-oxo-hexahydropyrimidin-1-yl]-N-[(3S,4R)-3-hydroxy-2,2-dimethyl-chroman-4-yl]-1-methyl-indane-5-carboxamide] | 9.15
CC1(C)CC(=O)N([C@@H]2CCOc3ccc(C(=O)N[C@@H]4c5ccccc5OC(C)(C)[C@@]4(C)O)cc32)C(=N)N1 [Example 172, (4R)-N-[(3S,4R)-3-hydroxy-2,2,3-trimethyl-chroman-4-yl]-4-(2-imino-4,4-dimethyl-6-oxo-hexahydropyrimidin-1-yl)chromane-6-carboxamide] | 9.05
CCC1(CC)CC(=O)N([C@@H]2CCOc3ccc(C(=O)N[C@@H]4c5ccccc5OC[C@H]4OC)cc32)C(=N)N1 [Example 173, (4R)-4-(4,4-diethyl-2-imino-6-oxo-hexahydropyrimidin-1-yl)-N-[(3S,4R)-3-methoxychroman-4-yl]chromane-6-carboxamide] | 8.55
CC[C@]1(C)CC(=O)N([C@H]2c3cc(C(=O)N[C@@H]4c5ccccc5C[C@H]4O)ccc3OC[C@@H]2COC)C(=N)N1 [Example 174, (3S,4R)-4-[(4R)-4-ethyl-2-imino-4-methyl-6-oxo-hexahydropyrimidin-1-yl]-N-[(1R,2R)-2-hydroxyindan-1-yl]-3-(methoxymethyl)chromane-6-carboxamide] | 8.72
COCC1(C)CC(N2C(=N)NC(C)(C)CC2=O)c2cc(C(=O)N[C@@H]3c4ccccc4C[C@H]3O)ccc2O1 (stereo partly drawn) [Example 175, N-[(1R,2R)-2-hydroxyindan-1-yl]-4-(2-imino-4,4-dimethyl-6-oxo-hexahydropyrimidin-1-yl)-2-(methoxymethyl)-2-methyl-chromane-6-carboxamide] | 7.51
CC[C@@]1(C)CC(=O)N(C2c3cc(C(=O)N[C@H]4CC(C)(C)Oc5ccccc54)ccc3OCC2O)C(=N)N1 (stereo partly drawn) [Example 177, N-[(4S)-2,2-dimethylchroman-4-yl]-4-[(4S)-4-ethyl-2-imino-4-methyl-6-oxo-hexahydropyrimidin-1-yl]-3-hydroxy-chromane-6-carboxamide] | 7.17
CC[C@]1(C)CC(=O)N(C2c3cc(C(=O)N[C@@H]4c5ccccc5C[C@@]4(C)O)ccc3OCC2OC)C(=N)N1 (stereo partly drawn) [Example 179, 4-[(4R)-4-ethyl-2-imino-4-methyl-6-oxo-hexahydropyrimidin-1-yl]-N-[(1R,2R)-2-hydroxy-2-methyl-indan-1-yl]-3-methoxy-chromane-6-carboxamide] | 7.18
CC[C@]1(C)CC(=O)N(C2c3cc(C(=O)N[C@@H]4c5ccccc5C[C@H]4O)ccc3OCC2(C)OC)C(=N)N1 (stereo partly drawn) [Example 180, 4-[(4R)-4-ethyl-2-imino-4-methyl-6-oxo-hexahydropyrimidin-1-yl]-N-[(1R,2R)-2-hydroxyindan-1-yl]-3-methoxy-3-methyl-chromane-6-carboxamide] | 7.18
CC1(C)CC(=O)N([C@H]2c3cc(C(=O)N[C@@H]4c5ccccc5OC(C)(C)[C@H]4O)ccc3OC2(C)C)C(=N)N1 [Example 182, (3S)-N-[(3S,4R)-3-hydroxy-2,2-dimethyl-chroman-4-yl]-3-(2-imino-4,4-dimethyl-6-oxo-hexahydropyrimidin-1-yl)-2,2-dimethyl-3H-benzofuran-5-carboxamide] | 8.21
COCC1(C)Oc2ccc(C(=O)N[C@@H]3c4ccccc4C[C@]3(C)O)cc2C1N1C(=N)NC(C)(C)CC1=O (stereo partly drawn) [Example 183, N-[(1R,2S)-2-hydroxy-2-methyl-indan-1-yl]-3-(2-imino-4,4-dimethyl-6-oxo-hexahydropyrimidin-1-yl)-2-(methoxymethyl)-2-methyl-3H-benzofuran-5-carboxamide] | 7.15
CC1(C)CC(=O)N([C@@H]2CCOc3ccc(C(=O)N[C@H]4c5ccccc5OC(C)(C)[C@]4(C)O)cc32)C(=N)N1 [Example 184, (4R)-N-[(3R,4S)-3-hydroxy-2,2,3-trimethyl-chroman-4-yl]-4-(2-imino-4,4-dimethyl-6-oxo-hexahydropyrimidin-1-yl)chromane-6-carboxamide] | 6.98
COC1COc2ccc(C(=O)N[C@@H]3c4ccccc4OC[C@]3(C)O)cc2C1N1C(=N)NC(C)(C)CC1=O (stereo partly drawn) [Example 185, N-[(3R,4R)-3-hydroxy-3-methyl-chroman-4-yl]-4-(2-imino-4,4-dimethyl-6-oxo-hexahydropyrimidin-1-yl)-3-methoxy-chromane-6-carboxamide] | 7.30
COC1COc2ccc(C(=O)N[C@@H]3c4ccccc4OC[C@@]3(C)O)cc2C1N1C(=N)NC(C)(C)CC1=O (stereo partly drawn) [Example 186, N-[(3S,4R)-3-hydroxy-3-methyl-chroman-4-yl]-4-(2-imino-4,4-dimethyl-6-oxo-hexahydropyrimidin-1-yl)-3-methoxy-chromane-6-carboxamide] | 7.15
CC1(C)CC(=O)N(C2CCS(=O)(=O)c3ccc(C(=O)N[C@@H]4c5ccccc5C[C@]4(C)O)cc32)C(=N)N1 (stereo partly drawn) [Example 187, N-[(1R,2S)-2-hydroxy-2-methyl-indan-1-yl]-4-(2-imino-4,4-dimethyl-6-oxo-hexahydropyrimidin-1-yl)-1,1-dioxo-3,4-dihydro-2H-thiochromane-6-carboxamide] | 7.18
CC1(C)CC(=O)N(C2CCS(=O)(=O)c3ccc(C(=O)N[C@@H]4c5ccccc5C[C@@]4(C)O)cc32)C(=N)N1 (stereo partly drawn) [Example 188, N-[(1R,2R)-2-hydroxy-2-methyl-indan-1-yl]-4-(2-imino-4,4-dimethyl-6-oxo-hexahydropyrimidin-1-yl)-1,1-dioxo-3,4-dihydro-2H-thiochromene-6-carboxamide] | 6.69
CC1(C)CC(=O)N([C@@H]2CCOc3ccc(C(=O)N[C@@H]4c5cc(F)ccc5OC(C)(C)[C@H]4O)cc32)C(=N)N1 [Example 189, (4R)-N-[(3S,4R)-6-fluoro-3-hydroxy-2,2-dimethyl-chroman-4-yl]-4-(2-imino-4,4-dimethyl-6-oxo-hexahydropyrimidin-1-yl)chromane-6-carboxamide] | 9.00

— patent publication US12350270B2, “Antimalarial agents” (Merck Sharp & Dohme LLC, priority 2019, dated 2025)
